# Test results taken from US20230340060A1, “NOVEL MEANS TO PREDICT AND MANIPULATE NMDA RECEPTOR-MEDIATED TOXICITY” (FundaMental Pharma GmbH, priority 2020, published 2023).
# Experiments:
# [1] = system: HEK293 cells; test: Luminescent Cytotoxicity Assay (CytoTox-Glo) after transfection with GluN1 and GluN2A or GluN2B constructs; type: cell-based, human; conditions: for cell death: HEK293 cells; for susceptibility to NMDA receptor mediated toxicity: subject carrying the variant, based on HEK293 cell death, with GluN1, 48 h after transfection
# Procedure: HEK293 Cell Culture HEK293 cells were cultured in Dulbecco's Modified Eagle Medium (DMEM, Gibco™, 41965-039) supplement with 10% Fetal Bovine Serum (FBS, Gibco™, 10270), 1% Sodium Pyruvate (Gibco™, 11360070), 1% MEM NEAA (Gibco™, 11140035) and 0.5% Penicillin-Streptomycin (P-S; Sigma, P0781) and Passage15-25 were used for experiments.
# To test the cytotoxicity of compounds according to the present invention, HEK293 cells (70-80% confluent) were transfected 24 hours after plating with expression vectors for both GluN1 and GluN2A or GluN2B, respectively (1:1; 2 μg plasmids in total per 6-cm dishes) with Lipofectamine 2000 according to manufacturer's instructions. The relative number of dead cells in the population at the indicated time points after transfection was measured with the CytoTox-Glo™ Cytotoxicity assay (Promega, G9290) according to manufacturer's instruction with minor modification. Briefly, 10% of total medium were mixed with 10 μL AAF-amino luciferin to reach a final volume at 200 μL with water, the dead cell relative luminescence units (DRLU) was measured by GloMax (Promega) in a 96 well white bottom polystyrene microplate (Corning Costar®, 3912). After all the measurements, lysis reagents have been added to the cells and 10% of lysate was used for the total cell relative luminescence units (TRLU) measurement. Cell death was calculated by the following equations: […]
# In order to investigate the role of GluN2A and GluN2B in NMDA receptor mediated toxicity, the inventors have built constructs and transfected the plasmids into HEK293 cells.
# In a next step, the inventors tried to assess the importance of the isoleucine and other amino acid residues in the inventive sequence motif. The inventors have built constructs containing above-mentioned mutants and transfected the plasmids into HEK293 cells.
# In view of the results obtained for the GluN2A and GluN2B mutants of the inventive sequence motif in example 3, the inventors further tested the impact of naturally occurring variations in said sequence motif in the human gene pool on susceptibility towards NMDA receptor mediated toxicity. The inventors have built constructs containing above-mentioned mutants selected from the SNP database from NCBI (for GRIN2A, https://www.ncbi.nlm.nih.gov/projects/SNP/snp_ref.cgi?showRare=on&chooseRs=coding&g o=Go&locusId=2903, and for GRIN2B, https://www.ncbi.nlm.nih.gov/projects/SNP/snp_ref.cgi?showRare=on&chooseRs=coding&g o=Go&locusId=2904) and transfected the plasmids into HEK293 cells.
# [2] = system: primary mouse hippocampal neurons; test: Neuronal death assessment after rAAV-mediated expression of polypeptides; type: cell-based; conditions: rAAV infection on DIV3, fixed on DIV17, Hoechst staining, polypeptide fused to HA tag and GPI anchor
# Procedure: Primary mouse hippocampal were prepared and maintained as known to the skilled person. Briefly, hippocampi from P0 C57Bl/6N mice were dissociated and plated at a density of […] in Growth Medium (GM), consisting of Neurobasal A medium (Gibco™, 10888022), 2% serum free B27™ Supplement (Gibco™, 17504044), 1% rat serum (Biowest, S2150), 0.5 mM L-Glutamine (Sigma, G7513) and 0.5% P-S. Cytosine P-D-arabinofuranoside (AraC; Sigma, C1768; 2.8 μM) was added on DIV3 to prevent the proliferation of glial cells. From DIV8, half of the medium was replaced by GM without Rat serum every 48 h until being used for experiments. […]
# Neurons were fixed in 4% paraformaldehyde with 4% sucrose in PBS for 15 min followed with Hoechst staining. […] Cell death is analyzed by Cell Profiler and Cell Analyzer software.
# In a next step, the inventors assessed whether the inventive sequence motif on its own is sufficient to induce NMDA receptor mediated toxicity. […] Neurons were fixed on DIV17, stained with Hoechst and cell death was quantified.
# [3] = combined expression with GluN1, 48 h after transfection
Substance,"cell death [1, 3]",susceptibility to NMDA receptor mediated toxicity [1],other results
"GluN1: wild type rat GluN1 (UniProtKB-P35439), control when expressed alone",,,"cell death ([1]; transfected alone (control), 48 h after transfection): neither GFP nor GluN1 alone (both serving as controls) could induce cell death"
GluN2A (I867M): GluN2A with naturally occurring substitution I867M,also toxic,increased susceptibility,
GluN2A (I876N): GluN2A with naturally occurring substitution I876N,also toxic,increased susceptibility,susceptibility to NMDA receptor mediated toxicity ([1]; listed as SEQ ID NO:6): significantly increased susceptibility
GluN2A (S869R): GluN2A with naturally occurring substitution S869R,also toxic,regular susceptibility,
"GluN2A-13A3: GluN2A with substitutions I863A, I867A and I871A (SEQ ID NO:3)",still show some toxic properties,,"cell death ([1]; combined expression with GluN1, 48 h after transfection, listed as GluN2A SEQ ID NO:3): at least reduced levels of toxicity"
GluN2A-I2A2: GluN2A with substitutions I867A and I871A (SEQ ID NO:2),still show some toxic properties,,"cell death ([1]; combined expression with GluN1, 48 h after transfection, listed as GluN2A SEQ ID NO:2): at least reduced levels of toxicity"
"GluN2A-IAHA: GluN2A with substitutions I867A, I871A and H875A (SEQ ID NO:21)",at least reduced levels of toxicity,,
GluN2A: wild type rat GluN2A (UniProtKB-Q00959) comprising canonical sequence SEQ ID NO:1,induced cell death,regular susceptibility,
GluN2B (H873R): GluN2B with naturally occurring substitution H873R,,decreased susceptibility,
GluN2B-12A2: GluN2B with substitutions I868A and I872A (SEQ ID NO:21),essentially abrogated any toxic effect,,
"GluN2B-I2A2AH: GluN2B with substitutions I868A, I872A and A876H",essentially abrogated any toxic effect,,
GluN2B: wild type rat GluN2B (UniProtKB-Q00960) comprising canonical sequence SEQ ID NO:7,induced cell death,regular susceptibility,
"SEQ ID NO:10: mutant GluN2A derived polypeptide comprising SEQ ID NO:2, fused to HA tag and GPI anchor (TGVCSDRPGLLFSISRGAYSCAHGVHIEEKKKS; GluN2A core motif mutated with 2 Ile residues mutated to Ala residues plus flanking regions)",,,cell death [2]: not able to induce cell death; cell death ([2]; listed as SEQ ID NO: 10): greatly reduces the cell death levels to approx. the levels of untransfected control
